Results on 2 compounds are retold here after patent US20230338345A1, “DRUG COMBINATION AND USE THEREOF” (NATURAL MEDICINE INSTITUTE OF ZHEJIANG YANGSHENGTANG CO., …, priority 2020, published 2023).

For data set [1] the following is noted: mouse, in vivo.
Protocol: (§1) (2) After tumor formation, the mice were divided into four experimental groups, namely, a blank control, a roflumilast group, a sodium ascorbate group, and a roflumilast+sodium ascorbate group. The mice in the roflumilast+sodium ascorbate group were intraperitoneally injected with roflumilast at 4 mg/kg and intravenously injected with sodium ascorbate at 1.5 g/kg every three days, for 5 administrations. At the same time, the roflumilast group and the sodium ascorbate group were separately injected with roflumilast and sodium ascorbate at the same dose in the same way; and normal saline was injected at the same dose in the blank control. The day of the first injection was taken as Day 1, and then the mice were tested and recorded in terms of body weight and tumor size: tumor volume (mm^3)=length (L) ×width (W) 2/2. Luciferin fluorescence imaging was conducted on tumors. That is, a 1 mg/mL D-luciferin potassium aqueous solution was formulated; each mouse was intraperitoneally injected with 100 μL of the D-luciferin potassium aqueous solution, and 10 minutes after injection, was subjected to luciferin fluorescence imaging with a small animal in vivo imager (Model: IVIS Lumina XRMS Series III).
A short description of data set [2]: Body weight of tumor-bearing mice (Example 1). The settings on record: roflumilast 4 mg/kg i.p., sodium ascorbate 1.5 g/kg i.v., every three days, 5 administrations; compared with the control.
Protocol: as §1

Where two headings read alike, the source gives them in different places.

On to `O=C(Nc1c(Cl)cncc1Cl)c1ccc(OC(F)F)c(OCC2CC2)c1` [roflumilast], for which the “effect on the body weight of mice” value in data set [1] is listed as “no effect on the body weight of mice”. As for `O=C1O[C@H]([C@@H](O)CO)C([O-])=C1O.[Na+]` [sodium ascorbate], in data set [2], the “effect on the body weight of mice” value was “no effect on the body weight of mice”.
